# Earlier results, collected in patent US9173850B2, “4-methylpyrazole formulations” (RAPTOR PHARMACEUTICALS INC., priority 2009, dated 2015).
# System: ethanol intolerance
# Details: doses below 10 mg/kg; subjects with reduced or absent ALDH activity who have consumed alcohol
structure (smiles),measurement,value
"Cc1cn[nH]c1 [Formulation 4-MP, 4-Methylpyrazole]",Effectiveness in treating ethanol intolerance or symptoms of aldehyde accumulation,effective
